In PubChem BioAssay AID330 (DTP/NCI, 2004):
Values joined by “and” are separate entries in the source; they are usually repeats but may differ in a detail not shown here. Equal values may be shown once. Inconclusive results and toxic doses are left out. The calls were made as follows: active = survival T/C of 150% or more; inactive = T/C below 125% in these data.

System: P388 leukemia ip, CD2F1 mice, survival T/C
Assay: NCI In Vivo Anticancer Drug Screen. Data for tumor model P388 Leukemia (intraperitoneal) in CD2F1 (CDF1) mice
Settings: endpoint: median survival time, higher = longer survival
How it was run: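 Mice carrying the transplanted tumor received test compound or vehicle. Survival was recorded in each group, and the value is the treated-group measurement divided by that of the vehicle-treated control group.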

[1] = dose: 25.0 mg/kg/injection, schedule: Q01DX009 (ip), vehicle: Klucel (hydroxypropylcellulose) (HPC)
[2] = dose: 200.0 mg/kg/injection, schedule: Q01DX005 (ip), vehicle: Klucel (hydroxypropylcellulose) (HPC)
[3] = dose: 50.0 mg/kg/injection, schedule: Q01DX005 (ip), vehicle: Klucel (hydroxypropylcellulose) (HPC)
[4] = dose: 100.0 mg/kg/injection, schedule: Q01DX005 (ip), vehicle: Klucel (hydroxypropylcellulose) (HPC)
[5] = dose: 60.0 mg/kg/injection, schedule: Q01DX005 (ip), vehicle: saline with Tween-80
[6] = dose: 120.0 mg/kg/injection, schedule: Q01DX005 (ip), vehicle: saline with Tween-80
[7] = dose: 240.0 mg/kg/injection, schedule: Q01DX005 (ip), vehicle: saline with Tween-80
[8] = dose: 6.25 mg/kg/injection, schedule: Q01DX009 (ip), vehicle: saline
[9] = dose: 12.5 mg/kg/injection, schedule: Q01DX009 (ip), vehicle: saline
[10] = dose: 25.0 mg/kg/injection, schedule: Q01DX009 (ip), vehicle: saline
[11] = dose: 50.0 mg/kg/injection, schedule: Q01DX009 (ip), vehicle: saline
[12] = dose: 100.0 mg/kg/injection, schedule: Q01DX009 (ip), vehicle: saline
[13] = dose: 50.0 mg/kg/injection, schedule: Q01DX005 (ip), vehicle: saline with Tween-80
[14] = dose: 100.0 mg/kg/injection, schedule: Q01DX005 (ip), vehicle: saline with Tween-80
[15] = dose: 200.0 mg/kg/injection, schedule: Q01DX005 (ip), vehicle: saline with Tween-80
[16] = dose: 50.0 mg/kg/injection, schedule: Q01DX009 (ip), vehicle: saline with Tween-80
[17] = dose: 100.0 mg/kg/injection, schedule: Q01DX009 (ip), vehicle: saline with Tween-80
[18] = dose: 200.0 mg/kg/injection, schedule: Q01DX009 (ip), vehicle: saline with Tween-80
[19] = dose: 50.0 mg/kg/injection, schedule: Q01DX009 (ip), vehicle: Klucel (hydroxypropylcellulose) (HPC)
[20] = dose: 100.0 mg/kg/injection, schedule: Q01DX009 (ip), vehicle: Klucel (hydroxypropylcellulose) (HPC)
[21] = dose: 200.0 mg/kg/injection, schedule: Q01DX009 (ip), vehicle: Klucel (hydroxypropylcellulose) (HPC)

Measured: T/C

Cc1c(C)c2ccc(OCCCN3CCN(Cc4ccc(Cl)cc4)CC3)cc2oc1=O
inactive: dose: 50.0 mg/kg/injection, schedule: Q01DX009 (ip), vehicle: suspension in saline 88 % of control | dose: 100.0 mg/kg/injection, schedule: Q01DX009 (ip), vehicle: suspension in saline 91 % of control

CC(=O)OCC1=CCCC1=O
inactive: [1] 111 % of control

c1cc2c3c(ccc2c2c1OCN(C1CCCCC1)C2)OCN(C1CCCCC1)C3
inactive: dose: 3.12 mg/kg/injection, schedule: Q01DX005 (ip), vehicle: Klucel (hydroxypropylcellulose) (HPC) 96 % of control | dose: 6.25 mg/kg/injection, schedule: Q01DX005 (ip), vehicle: Klucel (hydroxypropylcellulose) (HPC) 91 % of control | dose: 12.5 mg/kg/injection, schedule: Q01DX005 (ip), vehicle: Klucel (hydroxypropylcellulose) (HPC) 90 % of control | [2] 94 % of control

Cc1cccc(N=Nc2c(-c3ccccc3)nn(C(N)=S)c2-c2ccccc2)c1C
inactive: dose: 73.9 mg/kg/injection, schedule: Q04DX002 (ip), vehicle: Klucel (hydroxypropylcellulose) (HPC) 96 % of control | dose: 147.0 mg/kg/injection, schedule: Q04DX002 (ip), vehicle: Klucel (hydroxypropylcellulose) (HPC) 96 % of control | dose: 295.0 mg/kg/injection, schedule: Q04DX002 (ip), vehicle: Klucel (hydroxypropylcellulose) (HPC) 100 % of control

O=C1NCC2CCCCC12 (stereo not drawn)
inactive: [3] 107 % of control | [4] 99 % of control | [2] 100 % of control

C=C1C(=O)SC(=NCc2ccccc2)N1C
inactive: [5] 96 % of control | [6] 90 % of control | [7] 91 % of control

COC(=O)C1=C/CCCN(CCC2OCC(CBr)O2)/C=C\1C(=O)OC (stereo not drawn)
inactive: dose: 100.0 mg/kg/injection, schedule: Q01DX001 (ip), vehicle: saline with Tween-80 99 % of control | dose: 200.0 mg/kg/injection, schedule: Q01DX001 (ip), vehicle: saline with Tween-80 102 % of control | dose: 400.0 mg/kg/injection, schedule: Q01DX001 (ip), vehicle: saline with Tween-80 98 % of control

CC#Cc1ccc(-c2ccccc2)s1
inactive: dose: 1.0 mg/kg/injection, schedule: Q01DX005 (ip), vehicle: Klucel + Tween-80 96 % of control | dose: 2.0 mg/kg/injection, schedule: Q01DX005 (ip), vehicle: Klucel + Tween-80 98 % of control | dose: 4.0 mg/kg/injection, schedule: Q01DX005 (ip), vehicle: Klucel + Tween-80 94 % of control | dose: 8.0 mg/kg/injection, schedule: Q01DX005 (ip), vehicle: Klucel + Tween-80 93 % of control

c1ccc2c(-c3ccc(N4CCOCC4)cc3)c3ccc4ccccc4c3cc2c1
inactive: [3] 91 % of control | [4] 92 % of control | [2] 99 % of control

c1ccc(-c2nc3n(n2)CCC(c2ccccc2)S3)cc1 (stereo not drawn)
inactive: [5] 92 % of control | [6] 89 % of control | [7] 87 % of control

CCCCCCCCCCC1(O)OC(=O)C(C)=C1C (stereo not drawn)
inactive: dose: 12.5 mg/kg/injection, schedule: Q04DX003 (ip), vehicle: saline with Tween-80 100 % of control | dose: 25.0 mg/kg/injection, schedule: Q04DX003 (ip), vehicle: saline with Tween-80 101 % of control | dose: 50.0 mg/kg/injection, schedule: Q04DX003 (ip), vehicle: saline with Tween-80 100 % of control

O=C(Nc1ccc(Cl)cc1)NC1OC(=O)C(Cl)=C1Cl (stereo not drawn)
inactive: [8] 105 % of control | [9] 108 % of control | [10] 106 % of control | [11] 117 % of control | [12] 106 % of control

CCOC(=O)c1c(C(C)=O)cnc2c(C#N)cnn12
inactive: [13] 98 % of control | [14] 98 % of control | [15] 91 % of control

Nc1ncc2c(n1)CCCC2
inactive: [13] 98 % of control | [14] 98 % of control | [15] 100 % of control

CC1CC(=O)Nc2ncccc2N1 (stereo not drawn)
inactive: [16] 94 % of control | [17] 94 % of control | [18] 94 % of control

CSC(=N\N=C\c1ccc(N(C)C)cc1)/N=C/N(C)C
inactive: [5] 100 % of control | [6] 103 % of control | [7] 103 % of control

CC12CC(C(=O)O)C(C)(C1=O)C(c1ccccc1)=C2c1ccccc1 (stereo not drawn)
inactive: [1] 92 % of control | [19] 93 % of control | [20] 97 % of control | [21] 94 % of control

CC1(C)OCC2OC(n3cnc4c(N)ncnc43)C(O)C2O1 (stereo not drawn)
inactive: [1] 111 % of control | [19] 111 % of control | [20] 111 % of control | [21] 97 % of control

Nc1ccn(C2OC3COC2C3O)c(=O)n1 (stereo not drawn)
inactive: [10] 112 % of control | dose: 50.0 mg/kg/injection, schedule: Q01DX009 (ip), vehicle: saline + alcohol 100 % of control | [11] 110 % of control | dose: 100.0 mg/kg/injection, schedule: Q01DX009 (ip), vehicle: saline + alcohol 105 % of control | [12] 116 % of control | dose: 200.0 mg/kg/injection, schedule: Q01DX009 (ip), vehicle: saline + alcohol 112 % of control | dose: 200.0 mg/kg/injection, schedule: Q01DX009 (ip), vehicle: saline 117 % of control | dose: 400.0 mg/kg/injection, schedule: Q01DX009 (ip), vehicle: saline + alcohol 112 % of control | dose: 400.0 mg/kg/injection, schedule: Q01DX009 (ip), vehicle: saline 122 % of control | dose: 800.0 mg/kg/injection, schedule: Q01DX009 (ip), vehicle: saline + alcohol 114 % of control

COc1ccc(C(O)c2cc(C(F)(F)F)cc(C(F)(F)F)c2)cc1OC (stereo not drawn)
inactive: [3] 100 % of control | [4] 92 % of control | [2] 91 % of control

COc1cc(OC)c(/C=C\c2ccnc3ccccc23)c(OC)c1
inactive: [16] 97 % of control | [17] 90 % of control | [18] 104 % of control

CCCCCCCC[N+]1(CC)CCCCC1
inactive: dose: 3.12 mg/kg/injection, schedule: Q01DX009 (ip), vehicle: saline 104 % of control | [8] 109 % of control | [9] 109 % of control

CCCCCCCCCCCCCCP(I)(N(C)C)(N(C)C)N(C)C
inactive: dose: 0.1 mg/kg/injection, schedule: Q01DX009 (ip), vehicle: saline with Tween-80 106 % of control | dose: 0.19 mg/kg/injection, schedule: Q01DX009 (ip), vehicle: saline with Tween-80 113 % of control | dose: 0.38 mg/kg/injection, schedule: Q01DX009 (ip), vehicle: saline with Tween-80 117 % of control

CCC(c1ccc(O)cc1)C(CC)c1ccc(OCCN)cc1 (stereo not drawn)
inactive: dose: 30.0 mg/kg/injection, schedule: Q01DX005 (ip), vehicle: saline with Tween-80 111 % of control | [5] 103 % of control and 121 % of control | [6] 100 % of control

Cn1nc(C(N)=O)c(=O)[nH]c1=S
inactive: [13] 100 % of control | [14] 99 % of control | [15] 103 % of control

O=C(NCc1ccco1)C(=O)N/N=C/c1ccccc1O
inactive: [16] 89 % of control | [17] 92 % of control | [18] 92 % of control
